Source: patent US10660876B2, “Amino compounds for treatment of medical disorders” (Achillion Pharmaceuticals, Inc., priority 2015, dated 2020)

What follows are molecules tested against Human Factor D (Homo sapiens (Human), UniProt P00746) (assay: Human Factor D Assay). Details: Table 1; Factor D purified from human serum, 80 nM, substrate Z-L-Lys-SBzl; read-out: IC50.
Chain of Human Factor D (P00746 26-253): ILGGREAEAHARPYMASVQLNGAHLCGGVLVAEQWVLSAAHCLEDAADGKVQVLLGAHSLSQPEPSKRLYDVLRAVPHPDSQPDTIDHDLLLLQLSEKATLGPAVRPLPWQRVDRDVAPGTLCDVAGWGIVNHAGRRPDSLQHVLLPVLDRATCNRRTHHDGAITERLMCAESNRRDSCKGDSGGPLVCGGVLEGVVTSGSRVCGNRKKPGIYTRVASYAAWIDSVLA
Type: biochemical
Description: Example 12. Human Factor D Assay
Human Factor D (purified from human serum, Complement Technology, Inc.) at 80 nM final concentration is incubated with test compound at various concentrations for 5 minutes at room temperature in 50 mM Tris, 1M NaCl, pH 7.5. A synthetic substrate Z-L-Lys-SBzl and DTNB (Ellman's reagent) are added to final concentrations of 100 μM each. Absorbance at 405 nm (A405) is recorded at 30 second intervals for 30 minutes using a microplate spectrophotometer. IC50 values are calculated by nonlinear regression of complement Factor D reaction rates as a function of test compound concentration.
With CC(=O)c1cn(CC(=O)N2C[C@H](F)C[C@H]2C(=O)NCc2ccccn2)c2ccc(Nc3cncnc3)cc12 [Compound 17, (2S,4R)-1-(2-(3-acetyl-5-(pyrimidin-5-ylamino)-1H-indol-1-yl)acetyl)-4-fluoro-N-(pyridin-2-ylmethyl) pyrrolidine-2-carboxamide] the IC50 was < 1 µM.
With CC(=O)c1cn(CC(=O)N2C[C@H](F)C[C@H]2C(=O)Nc2cncc(Cl)c2)c2ccc(Nc3cncnc3)cc12 [Compound 22, (2S,4R)-1-(2-(3-acetyl-5-(pyrimidin-5-ylamino)-1H-indol-1-yl)acetyl)-N-(5-chloropyridin-3-yl)-4-fluoropyrrolidine-2-carboxamide] the IC50 was < 1 µM.
CC(=O)c1cn(CC(=O)N2C[C@H](F)C[C@H]2C(=O)Nc2n[nH]c(C)c2-c2ccccc2)c2ccc(Nc3cncnc3)cc12 [Compound 66, (2S,4R)-1-(2-(3-acetyl-5-(pyrimidin-5-ylamino)-1H-indol-1-yl)acetyl)-4-fluoro-N-(5-methyl-4-phenyl-1H-pyrazol-3-yl)pyrrolidine-2-carboxamide] was tested, and the IC50 was < 1 µM.
In the case of CC(=O)c1cn(CC(=O)N2C[C@H](F)C[C@H]2C(=O)NC2CCCc3nc(-c4ccc(F)cc4)sc32)c2ccc(Nc3cncnc3)cc12 (stereo partly drawn) [Compound 28, (2S,4R)-1-(2-(3-acetyl-5-(pyrimidin-5-ylamino)-1H-indol-1-yl)acetyl)-4-fluoro-N-(2-(4-fluorophenyl)-4,5,6,7-tetrahydrobenzo[d]thiazol-7-yl)pyrrolidine-2-carboxamide], the IC50 is reported as > 10 µM.
For CC(=O)c1cn(CC(=O)N2C[C@H](F)C[C@H]2C(=O)Nc2ncc(Br)cn2)c2ccc(Nc3cncnc3)cc12 [Compound 44, (2S,4R)-1-(2-(3-acetyl-5-(pyrimidin-5-ylamino)-1H-indol-1-yl)acetyl)-N-(5-bromopyrimidin-2-yl)-4-fluoropyrrolidine-2-carboxamide], the IC50 was < 1 µM.
CC(=O)c1cn(CC(=O)N2C[C@H](F)C[C@H]2C(=O)Nc2cccnc2)c2ccc(Nc3cncnc3)cc12 [Compound 31, (2S,4R)-1-(2-(3-acetyl-5-(pyrimidin-5-ylamino)-1H-indol-1-yl)acetyl)-4-fluoro-N-(pyridin-3-yl)pyrrolidine-2-carboxamide] was tested, and the IC50 was < 1 µM.
CC(=O)c1cn(CC(=O)N2C[C@H](F)C[C@H]2C(=O)Nc2cccc(Cl)n2)c2ccc(Nc3cncnc3)cc12 [Compound 6, (2S,4R)-1-(2-(3-acetyl-5-(pyrimidin-5-ylamino)-1H-indol-1-yl)acetyl)-N-(6-chloropyridin-2-yl)-4-fluoropyrrolidine-2-carboxamide] was tested, and the IC50 was < 1 µM.
With CC(=O)c1cn(CC(=O)N2C[C@H](F)C[C@H]2C(=O)Nc2cc(C)nn2-c2ccccc2F)c2ccc(Nc3cncnc3)cc12 [Compound 57, (2S,4R)-1-(2-(3-acetyl-5-(pyrimidin-5-ylamino)-1H-indol-1-yl)acetyl)-4-fluoro-N-(1-(2-fluorophenyl)-3-methyl-1H-pyrazol-5-yl)pyrrolidine-2-carboxamide] the IC50 was < 1 µM.
CC(=O)c1cn(CC(=O)N2C[C@H](F)C[C@H]2C(=O)N[C@H](C)c2oc3ccc(F)cc3c2C)c2ccc(Nc3cncnc3)cc12 [Compound 74, (2S,4R)-1-(2-(3-acetyl-5-(pyrimidin-5-ylamino)-1H-indol-1-yl)acetyl)-4-fluoro-N-((R)-1-(5-fluoro-3-methyl-benzofuran-2-yl)ethyl) pyrrolidine-2-carboxamide] was tested, and the IC50 was > 10 µM.
CC(=O)c1cn(C(=O)CN2C[C@H](F)C[C@H]2C(=O)Nc2nnc(-c3ccc(Cl)c(Cl)c3)s2)c2ccc(Nc3cncnc3)cc12 [Compound 39, (2S,4R)-1-(2-(3-acetyl-5-(pyrimidin-5-ylamino)-1H-indol-1-yl)-2-oxoethyl)-N-(5-(3,4-dichlorophenyl)-1,3,4-thiadiazol-2-yl)-4-fluoropyrrolidine-2-carboxamide] was tested, and the IC50 was > 10 µM.
For CC(=O)c1cn(CC(=O)N2C[C@H](F)C[C@H]2C(=O)Nc2cccc(-c3ccccc3Cl)c2F)c2ccc(Nc3cncnc3)cc12 [Compound 3, (2S,4R)-1-(2-(3-acetyl-5-(pyrimidin-5-ylamino)-1H-indol-1-yl)acetyl)-N-(2′-chloro-2-fluorobiphenyl-3-yl)-4-fluoropyrrolidine-2-carboxamide], the IC50 was < 1 µM.
CC(=O)c1cn(CC(=O)N2C[C@H](F)C[C@H]2C(=O)Nc2cccc(Br)n2)c2ccc(Nc3cncnc3)cc12 [Compound 4, (2S,4R)-1-(2-(3-acetyl-5-(pyrimidin-5-ylamino)-1H-indol-1-yl)acetyl)-N-(6-bromopyridin-2-yl)-4-fluoropyrrolidine-2-carboxamide] was tested, and the IC50 was < 1 µM.
With NC(=O)c1nn(CC(=O)N2C[C@H](F)C[C@H]2C(=O)Nc2cccc(-c3ccccc3Cl)c2F)c2ccc(Nc3cccnn3)cc12 [Compound 9, 1-(2-((2S,4R)-2-(2′-chloro-2-fluorobiphenyl-3-ylcarbamoyl)-4-fluoropyrrolidin-1-yl)-2-oxoethyl)-5-(pyridazin-3-ylamino)-1H-indazole-3-carboxamide] the IC50 was < 1 µM.
CC(=O)c1cn(CC(=O)N2C[C@H](F)C[C@H]2C(=O)NCc2cccc(Cl)c2F)c2cc(NS(=O)(=O)C(F)(F)F)ccc12 [Compound 2, (2S,4R)-1-(2-(3-acetyl-6-(trifluoromethyl-sulfonamido)-1H-indol-1-yl)acetyl)-N-(3-chloro-2-fluorobenzyl)-4-fluoropyrrolidine-2-carboxamide] was tested, and the IC50 was < 1 µM.
CC(=O)c1cn(CC(=O)N2C[C@H](F)C[C@H]2C(=O)Nc2ccc3[nH]c(C)c(C)c3c2)c2ccc(Nc3cncnc3)cc12 [Compound 38, (2S,4R)-1-(2-(3-acetyl-5-(pyrimidin-5-ylamino)-1H-indol-1-yl)acetyl)-N-(2,3-dimethyl-1H-indol-5-yl)-4-fluoropyrrolidine-2-carboxamide] was tested, and the IC50 was < 1 µM.
In the case of CC(=O)c1cn(CC(=O)N2C[C@H](F)C[C@H]2C(=O)Nc2ccc3ccccc3c2)c2ccc(Nc3cncnc3)cc12 [Compound 46, (2S,4R)-1-(2-(3-acetyl-5-(pyrimidin-5-ylamino)-1H-indol-1-yl)acetyl)-4-fluoro-N-(naphthalen-2-yl)pyrrolidine-2-carboxamide], the IC50 is reported as < 1 µM.
CC(=O)c1cn(CC(=O)N2C[C@H](F)C[C@H]2C(=O)Nc2cccc3c2OC(C)(C)C3)c2ccc(Nc3cncnc3)cc12 [Compound 24, (2S,4R)-1-(2-(3-acetyl-5-(pyrimidin-5-ylamino)-1H-indol-1-yl)acetyl)-N-(2,2-dimethyl-2,3-dihydrobenzofuran-7-yl)-4-fluoropyrrolidine-2-carboxamide] was tested, and the IC50 was < 1 µM.
In the case of CC(=O)c1cn(CC(=O)N2C[C@H](F)C[C@H]2C(=O)Nc2nc(-c3ccc4c(c3)CCCC4)cs2)c2ccc(Nc3cncnc3)cc12 [Compound 50, (2S,4R)-1-(2-(3-acetyl-5-(pyrimidin-5-ylamino)-1H-indol-1-yl)acetyl)-4-fluoro-N-(4-(5,6,7,8-tetrahy-dronaphthalen-2-yl)thiazol-2-yl)pyrrolidine-2-carboxamide], the IC50 is reported as > 10 µM.
CC(=O)c1cn(CC(=O)N2C[C@H](F)C[C@H]2C(=O)NCc2cc(F)cc(Cl)c2)c2ccc(Nc3cncnc3)cc12 [Compound 18, (2S,4R)-1-(2-(3-acetyl-5-(pyrimidin-5-ylamino)-1H-indol-1-yl)acetyl)-N-(3-chloro-5-fluorobenzyl)-4-fluoropyrrolidine-2-carboxamide] was tested, and the IC50 was < 1 µM.
In the case of CC(=O)c1cn(CC(=O)N2C[C@H](F)C[C@H]2C(=O)NC2CCCN(c3ccccc3Cl)C2=O)c2ccc(Nc3cncnc3)cc12 (stereo partly drawn) [Compound 58, (2S,4R)-1-(2-(3-acetyl-5-(pyrimidin-5-ylamino)-1H-indol-1-yl)acetyl)-N-(1-(2-chlorophenyl)-2-oxopiperidin-3-yl)-4-fluoropyrrolidine-2-carboxamide], the IC50 is reported as < 1 µM.
With CC(=O)c1cn(CC(=O)N2C[C@H](F)C[C@H]2C(=O)Nc2cc(C3CC3C)no2)c2ccc(Nc3cncnc3)cc12 (stereo partly drawn) [Compound 65, (2S,4R)-1-(2-(3-acetyl-5-(pyrimidin-5-ylamino)-1H-indol-1-yl)acetyl)-4-fluoro-N-(3-(2-methylcyclopropyl)isoxazol-5-yl)pyrrolidine-2-carboxamide] the IC50 was < 1 µM.
For CC(=O)c1cn(CC(=O)N2C[C@H](F)C[C@H]2C(=O)Nc2ccc3ncsc3c2)c2ccc(Nc3cncnc3)cc12 [Compound 56, (2S,4R)-1-(2-(3-acetyl-5-(pyrimidin-5-ylamino)-1H-indol-1-yl)acetyl)-N-(benzo[d]thiazol-6-yl)-4-fluoropyrrolidine-2-carboxamide], the IC50 was < 1 µM.

Same assay, conditions: Table 3; Factor D purified from human serum, 80 nM, substrate Z-L-Lys-SBzl; read-out: IC50 (Stars)
For CC(=O)c1cn(CC(=O)N2CC[C@H]2C(=O)Nc2cccc(C)n2)c2ccc(Nc3cncnc3)cc12 [Compound 160, (S)-1-(2-(3-acetyl-5-(pyrimidin-5-ylamino)-1H-indol-1-yl)acetyl)-N-(6-methylpyridin-2-yl)azetidine-2-carboxamide], the IC50 was > 10 µM.
With CC(=O)c1cn(CC(=O)N2C[C@H](F)C[C@H]2C(=O)NCCCCc2ccccc2)c2ccc(Nc3cccnc3)cc12 [Compound 152, (2S,4R)-1-(2-(3-acetyl-5-(pyridin-3-ylamino)-1H-indol-1-yl)acetyl)-4-fluoro-N-(4-phenylbutyl) pyrrolidine-2-carboxamide] the IC50 was < 1 µM.
For CC(=O)c1cn(CC(=O)N2C[C@H](F)C[C@H]2C(=O)NCCCc2ccccc2)c2ccc(Nc3cncnc3)cc12 [Compound 155, (2S,4R)-1-(2-(3-acetyl-5-(pyrimidin-5-ylamino)-1H-indol-1-yl)acetyl)-4-fluoro-N-(3-phenylpropyl) pyrrolidine-2-carboxamide], the IC50 was < 1 µM.
For CC(=O)c1nn(CC(=O)N2[C@H](C(=O)Nc3nc(Br)ccc3C)C[C@@]3(C)C[C@@H]23)c2ccc(Nc3cncc(F)c3)cc12 [Compound 165, (1R,3S,5R)-2-(2-(3-acetyl-5-((5-fluoropyridin-3-yl)amino)-1H-indazol-1-yl)acetyl)-N-(6-bromo-3-methylpyridin-2-yl)-5-methyl-2-azabicyclo[3.1.0] hexane-3-carboxamide], the IC50 was < 1 µM.
